Measured values from patent publication US12077503B2, “Substituted cyclic amides and their use as herbicides” (FMC CORPORATION, priority 2015, dated 2024).

Experiments:
Assay type in all cases: in vivo
[1] = tested on: barnyardgrass (Echinochloa crus-galli); assay: Test G Pre-Emergence Protocol; conditions: Echinochloa crus-galli, pre-emergence, 312 h, evaluated after 13 days; for pest or weed control at 15.625 g/ha: 15.625 g ai/ha, read-out: Barnyard grass damage rating (100=total damage to plant; 0=no damage to plant); for pest or weed control at 62.5 g/ha: 62.5 g ai/ha, 100=total damage to plant, 0=no damage to plant, read-out: plant damage rating, Barnyardgrass; for pest or weed control at 250 g/ha: 250 g ai/ha, read-out: Barnyardgrass damage rating (100=total damage to plant; 0=no damage to plant)
In short: (§1)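 One day after sowing, pots are treated with a spray of test compound formulated in acetone/water 50:50 plus 0.5% Tween 20, giving 15.625, 62.5 or 250 g/ha. Evaluation on a 0–100 damage scale follows 13 days of glasshouse growth.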

[2] = tested on: corn (Zea mays); assay: Test G Pre-Emergence Protocol; conditions: Zea mays, pre-emergence, 312 h, evaluated after 13 days; for plant injury at 15.625 g/ha: 15.625 g ai/ha; for plant injury at 15.625 g/ha / plant injury at 250 g/ha: read-out: Corn damage rating (100=total damage to plant; 0=no damage to plant); for plant injury at 62.5 g/ha: 62.5 g ai/ha, 100=total damage to plant, 0=no damage to plant, read-out: plant damage rating, Corn; for plant injury at 250 g/ha: 250 g ai/ha
In short: as §1

[3] = tested on: giant foxtail (Setaria faberi); assay: Test G Pre-Emergence Protocol; conditions: Setaria faberi, pre-emergence, 312 h, evaluated after 13 days; for pest or weed control at 15.625 g/ha: 15.625 g ai/ha; for pest or weed control at 15.625 g/ha / pest or weed control at 250 g/ha: read-out: Foxtail, Giant damage rating (100=total damage to plant; 0=no damage to plant); for pest or weed control at 62.5 g/ha: 62.5 g ai/ha, 100=total damage to plant, 0=no damage to plant, read-out: plant damage rating, Foxtail, Giant; for pest or weed control at 250 g/ha: 250 g ai/ha
In short: as §1

[4] = tested on: ivy-leaved morning glory (Ipomoea hederacea); assay: Test G Pre-Emergence Protocol; conditions: Ipomoea, pre-emergence, 312 h, evaluated after 13 days; for pest or weed control at 15.625 g/ha: 15.625 g ai/ha, read-out: Morning-glory, Ivy-leaved damage rating (100=total damage to plant; 0=no damage to plant); for pest or weed control at 62.5 g/ha: 62.5 g ai/ha, 100=total damage to plant, 0=no damage to plant, read-out: plant damage rating, Morningglory, Ivy-leaved; for pest or weed control at 250 g/ha: 250 g ai/ha, read-out: Morningglory, Ivy-leaved damage rating (100=total damage to plant; 0=no damage to plant)
In short: as §1

[5] = tested on: redroot pigweed (Amaranthus retroflexus); assay: Test G Pre-Emergence Protocol; conditions: Amaranthus retroflexus, pre-emergence, 312 h, evaluated after 13 days; for pest or weed control at 15.625 g/ha: 15.625 g ai/ha; for pest or weed control at 15.625 g/ha / pest or weed control at 250 g/ha: read-out: Pigweed, Redroot damage rating (100=total damage to plant; 0=no damage to plant); for pest or weed control at 62.5 g/ha: 62.5 g ai/ha, 100=total damage to plant, 0=no damage to plant, read-out: plant damage rating, Pigweed, Redroot; for pest or weed control at 250 g/ha: 250 g ai/ha
In short: as §1

[6] = tested on: velvetleaf (Abutilon theophrasti); assay: Test G Pre-Emergence Protocol; conditions: Abutilon theophrasti, pre-emergence, 312 h, evaluated after 13 days; for pest or weed control at 15.625 g/ha: 15.625 g ai/ha; for pest or weed control at 15.625 g/ha / pest or weed control at 250 g/ha: read-out: Velvetleaf damage rating (100=total damage to plant; 0=no damage to plant); for pest or weed control at 62.5 g/ha: 62.5 g ai/ha, 100=total damage to plant, 0=no damage to plant, read-out: plant damage rating, Velvetleaf; for pest or weed control at 250 g/ha: 250 g ai/ha
In short: as §1

[7] = tested on: barnyardgrass (Echinochloa crus-galli); assay: Test G Post-Emergence Protocol; conditions: Echinochloa crus-galli, post-emergence, 312 h; for pest or weed control at 15.625 g/ha: 15.625 g ai/ha, evaluated after 13 days (100=total damage to plant; 0=no damage to plant), read-out: Barnyardgrass damage rating; for pest or weed control at 62.5 g/ha: 62.5 g ai/ha, read-out: Barnyardgrass damage rating (100=total damage to plant; 0=no damage to plant); for pest or weed control at 62.5 g/ha / pest or weed control at 250 g/ha: evaluated after 13 days; for pest or weed control at 250 g/ha: 250 g ai/ha, read-out: damage to plant, Barnyardgrass (100=total damage to plant; 0=no damage to plant)
In short: (§2)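 Seedlings grown 8 days in soil in a glasshouse (24/16 °C day/night, 14 h light, 65% humidity) were sprayed post-emergence with compound in acetone/water 50:50 plus 0.5% Tween 20 at 15.625, 62.5 or 250 g/ha. Damage was scored after 13 days on a 0–100 scale (100 = total damage).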

[8] = tested on: corn (Zea mays); assay: Test G Post-Emergence Protocol; conditions: Zea mays, post-emergence, 312 h; for plant injury at 15.625 g/ha: 15.625 g ai/ha, evaluated after 13 days (100=total damage to plant; 0=no damage to plant), read-out: Corn damage rating; for plant injury at 62.5 g/ha: 62.5 g ai/ha, read-out: Corn damage rating (100=total damage to plant; 0=no damage to plant); for plant injury at 62.5 g/ha / plant injury at 250 g/ha: evaluated after 13 days; for plant injury at 250 g/ha: 250 g ai/ha, read-out: damage to plant, Corn (100=total damage to plant; 0=no damage to plant)
In short: as §2

[9] = tested on: giant foxtail (Setaria faberi); assay: Test G Post-Emergence Protocol; conditions: Setaria faberi, post-emergence, 312 h; for pest or weed control at 15.625 g/ha: 15.625 g ai/ha, evaluated after 13 days (100=total damage to plant; 0=no damage to plant), read-out: Foxtail, Giant damage rating; for pest or weed control at 62.5 g/ha: 62.5 g ai/ha, read-out: Foxtail, Giant damage rating (100=total damage to plant; 0=no damage to plant); for pest or weed control at 62.5 g/ha / pest or weed control at 250 g/ha: evaluated after 13 days; for pest or weed control at 250 g/ha: 250 g ai/ha, read-out: damage to plant, Foxtail, Giant (100=total damage to plant; 0=no damage to plant)
In short: as §2

[10] = tested on: ivy-leaved morning glory (Ipomoea hederacea); assay: Test G Post-Emergence Protocol; conditions: Ipomoea, post-emergence, 312 h; for pest or weed control at 15.625 g/ha: 15.625 g ai/ha, evaluated after 13 days (100=total damage to plant; 0=no damage to plant), read-out: Morningglory, Ivy-leaved damage rating; for pest or weed control at 62.5 g/ha: 62.5 g ai/ha, read-out: Morningglory, Ivy-leaved damage rating (100=total damage to plant; 0=no damage to plant); for pest or weed control at 62.5 g/ha / pest or weed control at 250 g/ha: evaluated after 13 days; for pest or weed control at 250 g/ha: 250 g ai/ha, read-out: damage to plant, Morningglory, Ivy-leaved (100=total damage to plant; 0=no damage to plant)
In short: as §2

[11] = tested on: redroot pigweed (Amaranthus retroflexus); assay: Test G Post-Emergence Protocol; conditions: Amaranthus retroflexus, post-emergence, 312 h; for pest or weed control at 15.625 g/ha: 15.625 g ai/ha, evaluated after 13 days (100=total damage to plant; 0=no damage to plant), read-out: Pigweed, Redroot damage rating; for pest or weed control at 62.5 g/ha: 62.5 g ai/ha, read-out: Pigweed, Redroot damage rating (100=total damage to plant; 0=no damage to plant); for pest or weed control at 62.5 g/ha / pest or weed control at 250 g/ha: evaluated after 13 days; for pest or weed control at 250 g/ha: 250 g ai/ha, read-out: damage to plant, Pigweed, Redroot (100=total damage to plant; 0=no damage to plant)
In short: as §2

[12] = tested on: velvetleaf (Abutilon theophrasti); assay: Test G Post-Emergence Protocol; conditions: Abutilon theophrasti, post-emergence, 312 h; for pest or weed control at 15.625 g/ha: 15.625 g ai/ha, evaluated after 13 days (100=total damage to plant; 0=no damage to plant), read-out: Velvetleaf damage rating; for pest or weed control at 62.5 g/ha: 62.5 g ai/ha, read-out: Velvetleaf damage rating (100=total damage to plant; 0=no damage to plant); for pest or weed control at 62.5 g/ha / pest or weed control at 250 g/ha: evaluated after 13 days; for pest or weed control at 250 g/ha: 250 g ai/ha, read-out: damage to plant, Velvetleaf (100=total damage to plant; 0=no damage to plant)
In short: as §2

Structure (SMILES)	pest or weed control at 15.625 g/ha [1] [%]	pest or weed control at 62.5 g/ha [1] [%]	pest or weed control at 250 g/ha [1] [%]	plant injury at 15.625 g/ha [2] [%]	plant injury at 62.5 g/ha [2] [%]	plant injury at 250 g/ha [2] [%]	pest or weed control at 15.625 g/ha [3] [%]	pest or weed control at 62.5 g/ha [3] [%]	pest or weed control at 250 g/ha [3] [%]	pest or weed control at 15.625 g/ha [4] [%]	pest or weed control at 62.5 g/ha [4] [%]	pest or weed control at 250 g/ha [4] [%]	pest or weed control at 15.625 g/ha [5] [%]	pest or weed control at 62.5 g/ha [5] [%]	pest or weed control at 250 g/ha [5] [%]	pest or weed control at 15.625 g/ha [6] [%]	pest or weed control at 62.5 g/ha [6] [%]	pest or weed control at 250 g/ha [6] [%]	pest or weed control at 15.625 g/ha [7] [%]	pest or weed control at 62.5 g/ha [7] [%]	other results
CN1C[C@H](c2ccc(C(F)(F)F)cc2)[C@@H](C(=O)Nc2ncccc2[N+](=O)[O-])C1=O (racemic) [Compound 1431]	0	0	0	0	0	0	0	0	0	0	0	0	0	0	0	0	0	0	0	0	pest or weed control at 250 g/ha [7]: 0%; plant injury at 15.625 g/ha [8]: 0%; plant injury at 62.5 g/ha [8]: 0%; plant injury at 250 g/ha [8]: 0%; pest or weed control at 15.625 g/ha [9]: 0%; pest or weed control at 62.5 g/ha [9]: 0%; pest or weed control at 250 g/ha [9]: 0%; pest or weed control at 15.625 g/ha [10]: 0%; pest or weed control at 62.5 g/ha [10]: 0%; pest or weed control at 250 g/ha [10]: 0%; pest or weed control at 15.625 g/ha [11]: 0%; pest or weed control at 62.5 g/ha [11]: 0%; pest or weed control at 250 g/ha [11]: 40%; pest or weed control at 15.625 g/ha [12]: 0%; pest or weed control at 62.5 g/ha [12]: 0%; pest or weed control at 250 g/ha [12]: 10%
CN1C[C@H](c2cccc(C#N)c2)[C@@H](C(=O)Nc2ccccc2F)C1=O (racemic) [Compound 1471]	10	70	90	0	0	0	40	80	90	0	0	20	0	0	0	0	0	0	30	30	pest or weed control at 250 g/ha [7]: 50%; plant injury at 15.625 g/ha [8]: 10%; plant injury at 62.5 g/ha [8]: 0%; plant injury at 250 g/ha [8]: 0%; pest or weed control at 15.625 g/ha [9]: 10%; pest or weed control at 62.5 g/ha [9]: 60%; pest or weed control at 250 g/ha [9]: 70%; pest or weed control at 15.625 g/ha [10]: 10%; pest or weed control at 62.5 g/ha [10]: 0%; pest or weed control at 250 g/ha [10]: 20%; pest or weed control at 15.625 g/ha [11]: 10%; pest or weed control at 62.5 g/ha [11]: 0%; pest or weed control at 250 g/ha [11]: 20%; pest or weed control at 15.625 g/ha [12]: 10%; pest or weed control at 62.5 g/ha [12]: 0%; pest or weed control at 250 g/ha [12]: 10%
